According to ChEMBL document CHEMBL1201862, “PubChem BioAssay data set” (2004):
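Assay format: 96-well plates, 48-hour exposure. The concentration for 50% growth inhibition is given as GI50.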 Activity calls are given as the source filed them. No stated cut-off is given here; in the data, active = GI50 up to about 1.1 µM and inactive = higher. *1 amine or outer side, *2 acyl side, *3 side chain or, on linkers, in order; H or OH if unused. Where a SMILES comes first, the peptide text is derived from it. The star is where a group is joined. γGlu = O=C(O)[CH](CCC(=O)[*:2])N[*:1]; NHOH = ON*

Columns and labels:
Assay in all cases: NCI-60 cell line screen, 48 h
[1] = system: 786-0
[2] = system: A498
[3] = system: A549
[4] = system: ACHN
[5] = system: BT-549
[6] = system: CAKI-1
[7] = system: CCRF-CEM
[8] = system: COLO 205
[9] = system: DU-145
[10] = system: EKVX
[11] = system: HCC 2998
[12] = system: HCT-116
[13] = system: HCT-15
[14] = system: HL-60
[15] = system: HOP-62
[16] = system: HOP-92
[17] = system: HT-29
[18] = system: IGROV-1
[19] = system: K562
[20] = system: KM12
[21] = system: LOX IMVI
[22] = system: M14
[23] = system: MCF7
[24] = system: MDA-MB-231
[25] = system: MDA-MB-435
[26] = system: MDA-N
[27] = system: MOLT-4
[28] = system: NCI-H226
[29] = system: NCI-H23
[30] = system: NCI-H460
[31] = system: NCI-H522
[32] = system: NCI/ADR-RES
[33] = system: OVCAR-3
[34] = system: OVCAR-4
[35] = system: OVCAR-5
[36] = system: OVCAR-8
[37] = system: PC-3
[38] = system: RPMI-8226
[39] = system: RXF 393
[40] = system: SF-268
[41] = system: SF-295
[42] = system: SF-539
[43] = system: SK-MEL-28
[44] = system: SK-MEL-2
[45] = system: SK-MEL-5
[46] = system: SK-OV-3
[47] = system: SN12C
[48] = system: SNB-19
[49] = system: SNB-75
[50] = system: SW-620
[51] = system: T47D
[52] = system: TK-10
[53] = system: U-251
[54] = system: UACC-257
[55] = system: UACC-62
[56] = system: UO-31
[57] = system: Malme-3M
[58] = system: SR
[59] = system: Hs-578T

Compound: NC(CCC(=O)NC(CCC(=O)NO)C(=O)NCC(=O)O)C(=O)O (centres undefined) (γGlu-Glu(NHOH)-Gly-OH; configuration not given here)
- GI50 [1]: > 100 µM (inactive)
- GI50 [2]: > 100 µM (inactive)
- GI50 [3]: > 100 µM (inactive)
- GI50 [4]: > 100 µM (inactive)
- GI50 [5]: > 100 µM (inactive)
- GI50 [6]: > 100 µM (inactive)
- GI50 [7]: > 100 µM (inactive)
- GI50 [8]: > 100 µM (inactive)
- GI50 [9]: > 100 µM (inactive)
- GI50 [10]: > 100 µM (inactive)
- GI50 [11]: > 100 µM (inactive)
- GI50 [12]: > 100 µM (inactive)
- GI50 [13]: > 100 µM
- GI50 [14]: > 100 µM (inactive)
- GI50 [15]: > 100 µM (inactive)
- GI50 [16]: > 100 µM (inactive)
- GI50 [17]: > 100 µM (inactive)
- GI50 [18]: > 100 µM (inactive)
- GI50 [19]: > 100 µM (inactive)
- GI50 [20]: > 100 µM (inactive)
- GI50 [21]: > 100 µM (inactive)
- GI50 [22]: > 100 µM (inactive)
- GI50 [23]: > 100 µM (inactive)
- GI50 [24]: > 100 µM (inactive)
- GI50 [25]: > 100 µM (inactive)
- GI50 [26]: > 100 µM (inactive)
- GI50 [27]: > 100 µM (inactive)
- GI50 [28]: > 100 µM (inactive)
- GI50 [29]: > 100 µM (inactive)
- GI50 [30]: > 100 µM (inactive)
- GI50 [31]: > 100 µM (inactive)
- GI50 [32]: > 100 µM (inactive)
- GI50 [33]: > 100 µM (inactive)
- GI50 [34]: > 100 µM (inactive)
- GI50 [35]: > 100 µM (inactive)
- GI50 [36]: > 100 µM (inactive)
- GI50 [37]: > 100 µM (inactive)
- GI50 [38]: > 100 µM (inactive)
- GI50 [39]: > 100 µM (inactive)
- GI50 [40]: > 100 µM (inactive)
- GI50 [41]: > 100 µM (inactive)
- GI50 [42]: > 100 µM (inactive)
- GI50 [43]: > 100 µM (inactive)
- GI50 [44]: > 100 µM (inactive)
- GI50 [45]: > 100 µM (inactive)
- GI50 [46]: > 100 µM (inactive)
- GI50 [47]: > 100 µM (inactive)
- GI50 [48]: > 100 µM (inactive)
- GI50 [49]: > 100 µM (inactive)
- GI50 [50]: > 100 µM (inactive)
- GI50 [51]: > 100 µM (inactive)
- GI50 [52]: > 100 µM (inactive)
- GI50 [53]: > 100 µM (inactive)
- GI50 [54]: > 100 µM (inactive)
- GI50 [55]: > 100 µM (inactive)
- GI50 [56]: > 100 µM (inactive)

Compound: Oc1ccc(-c2nc3ccc(F)cc3s2)cc1
- GI50 [1]: 18.5 µM (inactive)
- GI50 [3]: 19.8 µM (inactive)
- GI50 [4]: 19.1 µM (inactive)
- GI50 [5]: 18.1 µM (inactive)
- GI50 [6]: 19.7 µM (inactive)
- GI50 [8]: 16.2 µM (inactive)
- GI50 [9]: 15.2 µM (inactive)
- GI50 [10]: 10.8 µM (inactive)
- GI50 [12]: 18.2 µM (inactive)
- GI50 [13]: 18 µM
- GI50 [14]: 22.4 µM (inactive)
- GI50 [17]: 15 µM (inactive)
- GI50 [18]: 16.9 µM (inactive)
- GI50 [19]: 29.4 µM (inactive)
- GI50 [20]: 15.7 µM (inactive)
- GI50 [21]: 20.4 µM (inactive)
- GI50 [22]: 20.4 µM (inactive)
- GI50 [23]: 17.5 µM (inactive)
- GI50 [24]: 20.8 µM (inactive)
- GI50 [25]: 20.4 µM (inactive)
- GI50 [26]: 23.5 µM (inactive)
- GI50 [27]: 27 µM (inactive)
- GI50 [57]: 18.5 µM (inactive)
- GI50 [28]: 18.6 µM (inactive)
- GI50 [29]: 19.7 µM (inactive)
- GI50 [30]: 24.1 µM (inactive)
- GI50 [31]: 13.2 µM (inactive)
- GI50 [32]: 21.1 µM (inactive)
- GI50 [33]: 30.7 µM (inactive)
- GI50 [34]: 23 µM (inactive)
- GI50 [35]: 21.7 µM (inactive)
- GI50 [36]: 19.4 µM (inactive)
- GI50 [37]: 21.4 µM (inactive)
- GI50 [38]: 35.7 µM (inactive)
- GI50 [39]: 25.3 µM (inactive)
- GI50 [40]: 23.2 µM (inactive)
- GI50 [41]: 19.1 µM (inactive)
- GI50 [42]: 17.8 µM (inactive)
- GI50 [44]: 19.1 µM (inactive)
- GI50 [45]: 18 µM (inactive)
- GI50 [46]: 18.2 µM (inactive)
- GI50 [47]: 18.4 µM (inactive)
- GI50 [48]: 19.3 µM (inactive)
- GI50 [58]: 26.1 µM (inactive)
- GI50 [50]: 29.9 µM (inactive)
- GI50 [51]: 15.1 µM (inactive)
- GI50 [52]: 16 µM (inactive)
- GI50 [53]: 19.2 µM (inactive)
- GI50 [54]: 17.1 µM (inactive)
- GI50 [55]: 17.6 µM (inactive)
- GI50 [56]: 15.2 µM (inactive)

Compound: N#CC(C#N)=Cn1c(=S)[nH]c2ccccc21
- GI50 [1]: > 100 µM (inactive)
- GI50 [2]: > 100 µM (inactive)
- GI50 [3]: > 100 µM (inactive)
- GI50 [4]: > 100 µM (inactive)
- GI50 [6]: > 100 µM (inactive)
- GI50 [7]: > 100 µM (inactive)
- GI50 [8]: > 100 µM (inactive)
- GI50 [9]: > 100 µM (inactive)
- GI50 [10]: 78.3 µM (inactive)
- GI50 [11]: > 100 µM (inactive)
- GI50 [12]: > 100 µM (inactive)
- GI50 [14]: > 100 µM (inactive)
- GI50 [15]: > 100 µM (inactive)
- GI50 [16]: 77.8 µM (inactive)
- GI50 [17]: > 100 µM (inactive)
- GI50 [59]: > 100 µM (inactive)
- GI50 [18]: > 100 µM (inactive)
- GI50 [19]: > 100 µM (inactive)
- GI50 [20]: > 100 µM (inactive)
- GI50 [21]: > 100 µM (inactive)
- GI50 [22]: > 100 µM (inactive)
- GI50 [23]: > 100 µM (inactive)
- GI50 [24]: > 100 µM (inactive)
- GI50 [25]: > 100 µM (inactive)
- GI50 [26]: > 100 µM (inactive)
- GI50 [27]: > 100 µM (inactive)
- GI50 [57]: > 100 µM (inactive)
- GI50 [28]: > 100 µM (inactive)
- GI50 [29]: > 100 µM (inactive)
- GI50 [30]: > 100 µM (inactive)
- GI50 [31]: > 100 µM (inactive)
- GI50 [32]: > 100 µM (inactive)
- GI50 [33]: > 100 µM (inactive)
- GI50 [34]: > 100 µM (inactive)
- GI50 [35]: > 100 µM (inactive)
- GI50 [36]: > 100 µM (inactive)
- GI50 [37]: > 100 µM (inactive)
- GI50 [38]: > 100 µM (inactive)
- GI50 [39]: > 100 µM (inactive)
- GI50 [40]: > 100 µM (inactive)
- GI50 [41]: > 100 µM (inactive)
- GI50 [42]: > 100 µM (inactive)
- GI50 [43]: > 100 µM (inactive)
- GI50 [44]: > 100 µM (inactive)
- GI50 [45]: > 100 µM (inactive)
- GI50 [46]: > 100 µM (inactive)
- GI50 [47]: > 100 µM (inactive)
- GI50 [48]: > 100 µM (inactive)
- GI50 [49]: 50.8 µM (inactive)
- GI50 [58]: > 100 µM (inactive)
- GI50 [50]: > 100 µM (inactive)
- GI50 [51]: > 100 µM (inactive)
- GI50 [52]: > 100 µM (inactive)
- GI50 [53]: > 100 µM (inactive)
- GI50 [54]: > 100 µM (inactive)
- GI50 [55]: > 100 µM (inactive)
- GI50 [56]: > 100 µM (inactive)
